Consider 27 molecules from patent US8993593B2, “N-(4-(6-fluoro-3,4-dihydroisoquinolin-2(1H)-yl)-2,6-dimethylphenyl)-3,3-dimethylbutanamide as potassium channel modulators” (Valeant Pharmaceuticals International, priority 2006, dated 2015).

Test [1] deals with mouse maximal electroshock seizure (MES) model. Put plainly: Maximal electroshock seizure (MES) test, mouse. Conditions: MES, mouse; read-out: Mouse ED50. Type of test: in vivo. From the text:
(§1) The MES testing protocol is based on procedures established at the National Institute of Neurological Disorders and Stroke in conjunction with the Anticonvulsant Screening Program (ASP) at the University of Utah (White, H. S., Woodhead, J. H., Wilcox, K. S., Stables, J. P., Kupferberg, H. J and Wolf, H. H. 2002. “General Principles: Discovery and Preclinical Development of Antiepileptic Drugs,” in Antiepileptic Drugs, 5th Edition, R. H. Levy, ed.; R. H. Mattson, B. S. Meldrum, and E. Perucca. Philadelphia, Lippincott Williams & Wilkins.), The goal of the test rapid identification and characterization of the in vivo anticonvulsant activity of any compounds that have been shown active in PC-12 cellular based Rb^+ efflux assay.
(§2) Adult male CF-I albino mice (18-25 g, Charles River Laboratories) are exclusively used for in-house MES screen of compounds. Male Sprague-Dawley albino rats (100-125 g, Charles River Laboratories) are also used to test anticonvulsant compounds. Variability of test outcomes is reduced by using animals of the same sex, age, and weight. Animals are permitted to rest and recover from transit for at least 48 hr prior to experimentation. Animals are used for AED testing only once. In some instances, the animals may be anesthetized prior to blood collection and/or whole brain extraction for pharmacokinetic assay. All animals are maintained and handled as outlined in standard animal care guidelines.
(§3) In the experiments, testing compounds are prepared as suspensions in 0.5% methyl cellulose (Sigma, Cat #M0512, Viscosity 4000 cP at 20° C.) in water, regardless of solubility. Dry powder compounds are initially ground with a glass rod in a test tube in several drops of methyl cellulose to create a paste and to break down any large chunks. After several minutes of grinding, the volume of the suspension is increased to the final concentration desired. The suspension is then sonicated using a Branson sonicator model 3510 in a water bath at room temperature for 15 minutes. Compound suspensions are further vortexed prior to animal dosing. In some of the cases, DMSO is used to initially solubilize compounds in small volumes and then this solution is added to the 0.5% methyl cellulose solution, in order to create more even and less aggregated compound suspensions. The final concentration of DMSO is 3.75%, an amount with no apparent toxicity or neuroprotective effects in our usual rotarod and MES tests. Methyl cellulose/DMSO compound suspensions are identically prepared for intraperitoneally (i.p.) to mice or orally (p.o.) to rat dosing.
Initially the animals are weighed with an electronic scale and then marked. Data recording sheets are generated for each compound assessment. Mice or rats are dosed with the compound suspension at 0.01 mL/g of body weight. The typical injection volume range is between 180-250 μl for mice. […] Rats are p.o. dosed using a flexible feeding tube, typically starting at a compound dose of 5 mg/kg.
A Rodent Electroconvulsive Stimulator (Model 200, Hamit-Darvin-Freesh, Snow Canyon Clinic, Ivins, Utah) is used for MES testing. A 60-Hz alternating current (50 mA for mice; 150 mA for rats) is delivered for 0.2 seconds through corneal electrodes to the mice. A drop of 0.5% tetracaine (Sigma, Cat. #T-7508) solution is placed on the eye prior to current delivery. The electrodes are subsequently placed gently onto the eyes of the animal and the electrical shock is initiated by triggering through a foot-pedal activator. The animals are restrained by hand and gently released as the shock is delivered and the seizure commences. Animals are monitored for hind limb tonic extension as the end point for this test. Current delivery is recorded as a measure of overall seizure-induction potential. Electrical current delivery can vary from approximately 30-55 mA (mice) or 90-160 mA (rats) depending on impedance in the animal and quality of the current delivery (ie. correct placement of the electrodes on the cornea). […]
For orientation: The maximal electroshock test induces tonic seizures with an electrical stimulus.

Test [2] deals with rat MES model of epilepsy. Put plainly: Maximal electroshock seizure (MES) test, rat. Type of test: in vivo. Conditions: MES, rat; read-out: Rat ED50.
Source text: as §1, §2, §3
Initially the animals are weighed with an electronic scale and then marked. Data recording sheets are generated for each compound assessment. Mice or rats are dosed with the compound suspension at 0.01 mL/g of body weight. The typical injection volume range is between 180-250 μl for mice. Compounds are dosed by i.p. to mice using a 25 or 22 gauge needle, depending on the viscosity of the suspension. Rats are p.o. dosed using a flexible feeding tube, typically starting at a compound dose of 5 mg/kg.
A Rodent Electroconvulsive Stimulator (Model 200, Hamit-Darvin-Freesh, Snow Canyon Clinic, Ivins, Utah) is used for MES testing. A 60-Hz alternating current (50 mA for mice; 150 mA for rats) is delivered for 0.2 seconds through corneal electrodes to the mice. […] Animals are monitored for hind limb tonic extension as the end point for this test. Current delivery is recorded as a measure of overall seizure-induction potential. […]

The next test concerns the target KCNQ1/NE1 (Homo sapiens, UniProt P51787). Put plainly: Two-electrode voltage-clamp in Xenopus laevis oocytes, KCNQ1/KCNE1. More on the design: dose or concentration left out as unconfirmed. It counts as cell-based. Conditions: oocyte expression. On the procedure:
(§4) Female Xenopus laevis extracted ovaries were purchased from eNASCO (LM00935MX, eNASCO Fort Atkinson, Wis.). […] Approximately 50 nl cRNA (about 50 ng) was injected for KCNQ1, KCNQ4, and KCNQ5 using a Nanoject microinjector (Drummond, Broomall, Pa., USA). For co-expression of KCNQ2 and KCNQ3 and of KCNQ1 and KCNE1, cRNA's were mixed in equal molar ratios before injection of approximately 50 nl. […] Oocytes were kept in Culture Barth solution at 19° C. which was changed daily and currents were recorded after 3 to 5 days.
KCNQ channel currents expressed in Xenopus laevis oocytes were recorded using a two-electrode voltage-clamp. […]
(§5) Data were acquired by means of an Axograph X software (Axograph Scientific, Sydney, AU) and analyzed using Graph Pad Prism (GraphPad Software Inc., CA, USA). […]
(§6) After steady channel current was recorded in the presence of Retigabine at its EC75, recorded oocyte was washed with the recording solution until its steady current returned to its normal level without the presence of any drugs. Then the channel steady current was recorded in the presence of the test compound at its EC75. The percent efficacy was then expressed as: % efficacy=(C2/C 1)×100 where C2 is the recorded steady current in the presence of follow-on compound at its EC75 and C1 is the recorded steady current in the presence of Retigabine at its EC75.
(In two-electrode clamp one electrode senses voltage and the other passes current.)

The target in a further test is KCNQ1 (Homo sapiens, UniProt P51787). Put plainly: Two-electrode voltage-clamp in Xenopus laevis oocytes, KCNQ1. It counts as cell-based. Conditions: oocyte expression. Details: KCNQ1 Block (%): dose or concentration left out as unconfirmed. On the procedure: as §4
(§7) KCNQ channel currents expressed in Xenopus laevis oocytes were recorded using a two-electrode voltage-clamp. […] The oocytes were placed in custom built perfusion chambers connected to a continuous flow system and impaled with a current electrode and a voltage-clamp electrode pulled from borosilicate glass on a Flaming/Brown Micropipette Puller (Sutter Instruments Co, Novato, Calif., USA).
(§8) All compounds were dissolved in DMSO to obtain concentrated stock solutions. On the day of electrophysiological experiments the stock solutions were thawed and diluted in recording solution to their final concentrations. The final DMSO concentration never exceeded 0.1%. Compound delivery was performed using a custom built multi-barrel apparatus connected to the flow system.
as §5, §6

In a further test the target is KCNQ5 (Homo sapiens, UniProt Q9NR82). Put plainly: Two-electrode voltage-clamp in Xenopus laevis oocytes, KCNQ5. Type of test: cell-based. Conditions: oocyte expression, at EC75. The procedure:
as §4, §7, §8, §5, §6

A further test has as its target T1, KCNQ2 channels (Homo sapiens, UniProt O43526).
T1 construct: expressed in transfected cells; host or cells: CHO cells
Kind of test: Potassium ion efflux, KCNQ2 channels expressed in CHO cells. It counts as cell-based. On the procedure:
Using natively expressed M-currents present in differentiated pheochromocytoma (PC-12) cells and CHO cells transfected with KCNQ2 and hERG potassium channels, the in vitro activity of compound A on potassium ion efflux was determined.
The EC50 values for retigabine and compound A on the activation of KCNQ2 channels expressed in CHO cells were determined on three separate occasions in triplicate.

A further test concerns the target KCNQ4 (Homo sapiens, UniProt P56696). Put plainly: Two-electrode voltage-clamp in Xenopus laevis oocytes, KCNQ4. Type of test: cell-based. Conditions: oocyte expression, at EC75. On the procedure: as §4, §7, §8, §5, §6
For a further test, the target named is KCNQ2/3 (Homo sapiens, UniProt O43525+O43526). Kind of test: Two-electrode voltage-clamp in Xenopus laevis oocytes, KCNQ2/3. It counts as cell-based. Conditions: oocyte expression, at EC75. On the procedure:
as §4, §7, §8, §5, §6

T1 sequence (O43526 whole entry): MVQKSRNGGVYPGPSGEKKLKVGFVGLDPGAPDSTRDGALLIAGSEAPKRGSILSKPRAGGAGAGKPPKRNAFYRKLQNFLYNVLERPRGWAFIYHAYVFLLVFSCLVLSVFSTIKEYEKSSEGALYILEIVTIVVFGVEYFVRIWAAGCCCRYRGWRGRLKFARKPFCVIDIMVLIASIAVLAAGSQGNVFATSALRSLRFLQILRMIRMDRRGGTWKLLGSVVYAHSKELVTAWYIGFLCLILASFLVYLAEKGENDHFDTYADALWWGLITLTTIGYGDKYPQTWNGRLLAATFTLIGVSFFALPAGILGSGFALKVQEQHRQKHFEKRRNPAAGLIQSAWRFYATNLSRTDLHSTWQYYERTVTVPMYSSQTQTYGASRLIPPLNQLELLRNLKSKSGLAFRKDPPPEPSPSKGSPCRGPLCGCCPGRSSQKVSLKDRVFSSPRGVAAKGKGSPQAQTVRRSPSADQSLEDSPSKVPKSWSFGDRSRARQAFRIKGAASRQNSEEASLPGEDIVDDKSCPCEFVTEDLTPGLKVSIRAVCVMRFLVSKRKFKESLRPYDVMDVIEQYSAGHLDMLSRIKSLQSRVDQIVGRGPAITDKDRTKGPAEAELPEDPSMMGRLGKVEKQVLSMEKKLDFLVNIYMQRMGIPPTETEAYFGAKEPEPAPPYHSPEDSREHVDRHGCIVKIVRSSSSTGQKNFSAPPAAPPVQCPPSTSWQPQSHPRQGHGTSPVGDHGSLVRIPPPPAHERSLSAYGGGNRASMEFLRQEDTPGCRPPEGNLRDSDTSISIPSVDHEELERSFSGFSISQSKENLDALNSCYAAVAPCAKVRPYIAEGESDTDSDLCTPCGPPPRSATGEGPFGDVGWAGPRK
Sequence of KCNQ1/NE1 (P51787 whole entry): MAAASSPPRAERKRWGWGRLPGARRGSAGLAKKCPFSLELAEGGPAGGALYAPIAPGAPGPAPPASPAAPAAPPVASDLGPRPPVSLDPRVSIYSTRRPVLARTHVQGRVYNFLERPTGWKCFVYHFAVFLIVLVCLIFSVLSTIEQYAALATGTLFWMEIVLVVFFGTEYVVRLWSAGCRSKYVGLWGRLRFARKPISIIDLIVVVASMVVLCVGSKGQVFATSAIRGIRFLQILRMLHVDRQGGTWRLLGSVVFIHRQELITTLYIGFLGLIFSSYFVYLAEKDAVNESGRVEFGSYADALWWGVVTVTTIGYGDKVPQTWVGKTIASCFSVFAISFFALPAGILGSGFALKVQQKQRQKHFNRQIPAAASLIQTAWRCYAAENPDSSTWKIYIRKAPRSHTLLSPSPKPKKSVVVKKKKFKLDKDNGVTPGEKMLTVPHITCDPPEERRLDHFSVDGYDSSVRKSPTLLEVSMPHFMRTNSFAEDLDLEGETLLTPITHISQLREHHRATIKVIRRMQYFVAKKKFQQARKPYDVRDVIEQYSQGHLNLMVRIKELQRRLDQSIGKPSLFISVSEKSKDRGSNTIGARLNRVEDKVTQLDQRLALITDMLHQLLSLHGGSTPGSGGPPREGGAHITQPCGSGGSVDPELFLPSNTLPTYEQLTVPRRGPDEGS

What is called ED50 is the midpoint of the dose-response relation. Regarding `CC(C)(C)CC(=O)Nc1c(Cl)cc(N2CCc3ccccc3C2)cc1C(F)(F)F`, the 50% effective dose (ED50) in test [1] is more than 12 mg/kg.
On to `O=C(CCC1CCCC1)Nc1c(Cl)cc(N2CCc3ccccc3C2)cc1C(F)(F)F`, for which the 50% effective dose (ED50) in test [1] was more than 12 mg/kg.
For `Cc1cc(N2CCc3ccccc3C2)cc(C)c1NC(=O)CC(C)(C)C`, in test [1], the median effective dose (ED50) lay within 0.12 to 1.2 mg/kg.
Take `CC(C)(C)CC(=O)Nc1c(Cl)cc(N2CCc3cc(F)ccc3C2)cc1C(F)(F)F`: the ED50 in test [1] was more than 12 mg/kg.
As for `Cc1cc(N2CCc3ccccc3C2)cc(Cl)c1NC(=O)CC(C)(C)C`, the ED50 in test [1] fell in the range of 0.12 to 1.2 mg/kg.
On to `Cc1cc(N2CCc3ccc(F)cc3C2)cc(C)c1NC(=O)CC(C)(C)C`, for which the ED50 in test [1] lay within 0.12 to 1.2 mg/kg.
Still for that read-out and setting: in the case of `Cc1cc(N2CCc3cc(F)ccc3C2)cc(Cl)c1NC(=O)CC(C)(C)C` it was more than 12 mg/kg; in that of `Cc1cc(N2CCc3cc(C(F)(F)F)ccc3C2)cc(Cl)c1NC(=O)CC(C)(C)C`, more than 12 mg/kg; in that of `CC(C)(C)CC(=O)Nc1c(Cl)cc(N2CCc3cc(C(F)(F)F)ccc3C2)cc1C(F)(F)F`, more than 12 mg/kg.
Turning to `Cc1cc(N2CCc3cc(C(F)(F)F)ccc3C2)cc(C)c1NC(=O)CC(C)(C)C`, the ED50 in test [1] and in test [2] was 0.12 to 1.2 mg/kg each time.
`O=C(CCC1CCCC1)Nc1c(Cl)cc(N2CCc3cc(F)ccc3C2)cc1C(F)(F)F`: the 50% effective dose (ED50) in test [1] is more than 12 mg/kg.
Turning to `Cc1cc(N2CCc3cc(Cl)ccc3C2)cc(C)c1NC(=O)CC(C)(C)C`, the 50% effective dose (ED50) in test [1] was in the range of 0.12 to 1.2 mg/kg.
Turning to `CC(C)(C)CC(=O)Nc1c(Cl)cc(N2CCc3cc(Cl)ccc3C2)cc1C(F)(F)F`, the ED50 in test [1] was more than 12 mg/kg.
Consider `Cc1cc(N2CCc3ccc(F)cc3C2)cc(Cl)c1NC(=O)CC(C)(C)C`, for which, in test [1], the ED50 is 0.12 to 1.2 mg/kg.
Same read-out and setting: in the case of `Cc1cc(N2CCc3cc(Cl)ccc3C2)cc(Cl)c1NC(=O)CC(C)(C)C` it was 0.12 to 1.2 mg/kg.
On the same count and under the same terms, the result for `CC(C)(C)CC(=O)Nc1c(Cl)cc(N2CCc3ccc(F)cc3C2)cc1C(F)(F)F` reads more than 12 mg/kg; that for `CC(C)(C)CC(=O)Nc1ccc(N2CCc3cc(F)ccc3C2)cc1Cl`, more than 12 mg/kg.
`CC(C)(C)CC(=O)Nc1ccc(N2CCc3cc(F)ccc3C2)cc1C(F)(F)F`: the ED50 in test [1] lay within 0.12 to 1.2 mg/kg.
On the same count and under the same terms, in the case of `CC(C)(C)CC(=O)Nc1ccc(N2CCc3cc(C(F)(F)F)ccc3C2)cc1Cl` it was more than 12 mg/kg.
For the molecule `Cc1cc(N2CCc3ccc(C(F)(F)F)cc3C2)cc(C)c1NC(=O)CC(C)(C)C`, the ED50 in test [1] and in test [2] was 0.12 to 1.2 mg/kg each time.
Turning to `COc1cc(N2CCc3ccccc3C2)cc(C)c1NC(=O)CC(C)(C)C`, the ED50 in test [1] lay in the range of 0.12 to 1.2 mg/kg.
Turning to `CC(C)(C)CC(=O)Nc1c(Cl)cc(N2CCc3ccccc3C2)cc1OC(F)(F)F`, the 50% effective dose (ED50) in test [1] was more than 12 mg/kg.
For `COc1cc(N2CCc3ccccc3C2)cc(OC)c1NC(=O)CC(C)(C)C`, the ED50 in test [1] and in test [2] was 0.12 to 1.2 mg/kg throughout.
For the molecule `CC(C)(C)CC(=O)Nc1ccc(N2CCc3ccc(C(F)(F)F)cc3C2)cc1C(F)(F)F`, the ED50 in test [1] lay in the range of 0.12 to 1.2 mg/kg.
In the case of `COc1ccc2c(c1)CCN(c1cc(C)c(NC(=O)CC(C)(C)C)c(C)c1)C2`, in test [1], the ED50 was more than 12 mg/kg.
With `Cc1cc(N2CCc3cc(F)ccc3C2)cc(C)c1NC(=O)CC(C)(C)C` [drawing 119], the ED50 in test [1] and in test [2] was 0.12 to 1.2 mg/kg each time.
In general, EC50 refers to the midpoint of the concentration-response curve. For the molecule `CCOC(=O)Nc1ccc(NCc2ccc(F)cc2)cc1N` [retigabine, N-[2-amino-4-(4-fluorobenzylamino)phenyl]carbamic acid, ethyl ester, reference compound], the “KCNQ1/NE1 Block (%)” value at KCNQ1/NE1 was found to be 4.3%. In addition, the “KCNQ1 Block (%)” value on KCNQ1 was found to be 12%. The “KCNQ5 Efficacy Relative to Retigabine (%)” value on KCNQ5 was found to be 100%. For the same molecule, at KCNQ2 channels, the EC50 was found to be 291 nM. Moreover, at KCNQ4, the “KCNQ4 Efficacy Relative to Retigabine (%)” value came to 100%. For the same molecule, at KCNQ2/3, the “KCNQ2/3 Efficacy Relative to Retigabine (%)” value came to 100%.
